Reference: US20090054346A1, “ELASTIN PRODUCTION-ENHANCING AGENTS” (Rohto Pharmaceutical Co., Ltd., priority 2006, published 2009)
Peptide text beside a SMILES is read from it.

Tested on: Normal human skin-derived fibroblasts (CRL-1836)
Test: Microscopic observation of fibroblasts after 72 hours of culture (cell count, morphology)
Assay type: cell-based
Details: 1000 μg/ml peptide
Description: Normal human skin-derived fibroblasts (CRL-1836; ATCC) were cultured in 60-mm dishes. More specifically, the cells were plated in dishes at a density of 2500 cells/cm^2, and cultured until subconfluent at 37° C. under 5% carbon dioxide gas and 95% air for 6 days. 3 ml of Dulbecco's Modified Eagle Medium (DMEM) supplemented with […] fetal bovine serum (FBS) was used in the culture. Then, the culture medium was changed to the same medium without FBS (namely, serum-free medium), and the culture was continued for 1 day. Next, the culture medium was changed to 3 ml of serum-free medium supplemented with 1000 μg/ml of the LEHA peptide prepared in Example 1, and the cells were cultured for 72 hours. Meanwhile, the culture in which the medium was changed to 3 ml of serum-free culture medium without the LEHA peptide was used as a control.
After 72 hours of culture, the cells in the dishes containing the LEHA peptide and the control dishes were observed under a microscope.

- cell counts versus control dishes: not significantly different
SMILES: CC(C)C[C@H](N)C(=O)N[C@@H](CCC(=O)O)C(=O)N[C@@H](Cc1c[nH]cn1)C(=O)N[C@@H](C)C(=O)O [LEHA peptide, Leu-Glu-His-Ala] (H-LEHA-OH)
- morphological abnormality of the cells: no morphological abnormality was observed
